Assay results published in US9126976B2 (Merck Sharp & Dohme Corp., priority 2011, dated 2015).

The molecules below were run against CETP (Homo sapiens (Human), UniProt P11597) (assay: Scintillation Proximity Assay (SPA) for CETP activity). Conditions: Table 1, read-out: IC50.
Format: biochemical
Procedure: Protocol: Scintillation Proximity Assay (SPA) for CETP Activity
First, low density lipoprotein (LDL) (Meridian) was biotinylated by incubating LDL with biotin for 1 hour on ice, after which it was dialyzed to remove free biotin. Then compounds at varying concentrations were incubated with 15 nM CETP (reagent production group, In Vitro Pharmacology, MRL Rahway) and 50 ug/ml of the biotinylated LDL in 50 mM HEPES, 150 mM NaCl, pH 7.4, for 1 hour at 37° C. The reaction was started by adding 3H-cholesterol ester high density lipoprotein (HDL) (American Radiochemicals Corp) at a concentration of ˜0.6 nM. The reaction proceeded for 2 hours at 37° C., after which time it was quenched by the addition of 12% acetic acid. PVT streptavadin-coated scintillation proximity beads, which had been brought to room temperature, were then added at a concentration of 4 mg/ml. The assay was then mixed and counted after one half hour in a Microbeta plate reader.

Sequence of CETP (P11597 18-493): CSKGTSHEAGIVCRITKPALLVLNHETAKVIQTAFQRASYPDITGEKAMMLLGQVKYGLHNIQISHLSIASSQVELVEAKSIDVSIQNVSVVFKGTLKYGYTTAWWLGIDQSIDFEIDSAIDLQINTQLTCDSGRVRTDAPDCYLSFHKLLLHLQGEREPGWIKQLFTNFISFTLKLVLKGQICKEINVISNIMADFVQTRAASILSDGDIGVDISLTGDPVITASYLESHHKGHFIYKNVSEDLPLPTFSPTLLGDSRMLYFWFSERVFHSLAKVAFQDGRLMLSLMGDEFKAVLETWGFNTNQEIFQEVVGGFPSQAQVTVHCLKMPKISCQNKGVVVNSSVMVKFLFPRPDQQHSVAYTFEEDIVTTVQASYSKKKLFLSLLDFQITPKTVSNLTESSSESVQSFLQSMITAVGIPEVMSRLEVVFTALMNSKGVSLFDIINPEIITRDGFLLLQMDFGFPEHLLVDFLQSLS

Row | Structure (SMILES) | IC50 [nM]
1 | O[C@H](CN1c2ccccc2N(Cc2cc(F)cc(C(F)(F)F)c2)C[C@H]1c1ccccc1)C(F)(F)F [Example 29, (R)-3-((R)-4-(3-fluoro-5-(trifluoromethyl)benzyl)-2-phenyl-3,4-dihydroquinoxalin-1(2H)-yl)-1,1,1-trifluoropropan-2-ol] | 105
2 | O[C@H](CN1c2ccccc2N(Cc2cccc(Cl)c2)C[C@H]1c1ccccc1)C(F)(F)F [Example 30, (R)-3-((R)-4-(3-chlorobenzyl)-2-phenyl-3,4-dihydroquinoxalin-1(2H)-yl)-1,1,1-trifluoropropan-2-ol] | 1400
3 | O[C@H](CN1c2ccccc2N(Cc2cc(Cl)cc(Cl)c2)C[C@H]1c1ccccc1)C(F)(F)F [Example 31, (R)-3-((R)-4-(3,5-dichlorobenzyl)-2-phenyl-3,4-dihydroquinoxalin-1(2H)-yl)-1,1,1-trifluoropropan-2-ol] | 2760
4 | O[C@H](CN1c2ccccc2N(Cc2cc(Cl)cc(Cl)c2)C[C@H]1c1cccc(C(F)(F)F)c1)C(F)(F)F [Example 32, (R)-3-((R)-4-(3,5-dichlorobenzyl)-2-(3-(trifluoromethyl)phenyl)-3,4-dihydroquinoxalin-1(2H)-yl)-1,1,1-trifluoro propan-2-ol] | 12
5 | Cc1ccccc1CN1C[C@@H](c2cccc(C(F)(F)F)c2)N(C[C@@H](O)C(F)(F)F)c2ccccc21 [Example 33, (R)-3-((R)-4-(2-methylbenzyl)-2-(3-(trifluoromethyl)phenyl)-3,4-dihydroquinoxalin-1(2H)-yl)-1,1,1-trifluoro propan-2-ol] | 428
6 | O[C@H](CN1c2ccccc2N(Cc2cccc(Cl)c2Cl)C[C@H]1c1cccc(C(F)(F)F)c1)C(F)(F)F [Example 34, (R)-3-((R)-4-(2,3-dichlorobenzyl)-2-(3-(trifluoromethyl)phenyl)-3,4-dihydroquinoxalin-1(2H)-yl)-1,1,1-trifluoro propan-2-ol] | 169
7 | O[C@H](CN1c2ccccc2N(Cc2c(Cl)cccc2Cl)C[C@H]1c1cccc(C(F)(F)F)c1)C(F)(F)F [Example 35, (R)-3-((R)-4-(2,6-dichlorobenzyl)-2-(3-(trifluoromethyl)phenyl)-3,4-dihydroquinoxalin-1(2H)-yl)-1,1,1-trifluoro propan-2-ol] | 1160
8 | O[C@H](CN1c2ccccc2N(CC2CCCCC2)C[C@H]1c1cccc(C(F)(F)F)c1)C(F)(F)F [Example 37, (R)-3-((R)-4-(cyclohexylmethyl)-2-(3-(trifluoromethyl)phenyl)-3,4-dihydroquinoxalin-1(2H)-yl)-1,1,1-trifluoro propan-2-ol] | 1270
9 | O[C@H](CN1c2ccccc2N(Cc2ccsc2)C[C@H]1c1cccc(C(F)(F)F)c1)C(F)(F)F [Example 38, (R)-3-((R)-4-(thiophenyl-3-ylmethyl)-2-(3-(trifluoromethyl)phenyl)3,4-dihydroquinoxalin-1(2H)-yl)-1,1,1-trifluoropropan-2-ol] | 461
10 | O[C@H](CN1c2ccccc2N(Cc2ccc(Cl)cc2)C[C@H]1c1cccc(C(F)(F)F)c1)C(F)(F)F [Example 39, (2R)-3-(4-(4-chlorobenzyl)-2-(3-(trifluoromethyl)phenyl)-3,4-dihydroquinoxalin-1(2H)-yl)-1,1,1-trifluoropropan-2-ol] | 548
11 | O[C@H](CN1c2ccccc2N(Cc2cccc(C(F)(F)F)c2)C[C@H]1c1cccc(C(F)(F)F)c1)C(F)(F)F [Example 40, (2R)-1,1,1-trifluoro-3-(4-(3-(trifluoromethyl)benzyl)-2-(3-(trifluoromethyl)phenyl)-3,4-dihydroquinoxalin-1(2H)-yl)propan-2-ol] | 57.1
12 | O[C@H](CN1c2ccccc2N(Cc2cc(F)cc(C(F)(F)F)c2)C[C@H]1c1cccc(C(F)(F)F)c1)C(F)(F)F [Example 41, (2R)-1,1,1-trifluoro-3-(4-(3-fluoro-5-(trifluoromethyl)benzyl)-2-(3-(trifluoromethyl)phenyl)-3,4-dihydroquinoxalin-1(2H)-yl)propan-2-ol] | 45.2
13 | CCc1cc(CN2C[C@@H](c3cccc(C(F)(F)F)c3)N(C[C@@H](O)C(F)(F)F)c3ccccc32)ccc1Cl [Example 42, (2R)-3-(4-(4-chloro-3-ethylbenzyl)-2-(3-(trifluoromethyl)phenyl)-3,4-dihydroquinoxalin-1(2H)-yl)-1,1,1-trifluoropropan-2-ol] | 45.1
14 | Cc1ccc(C(F)(F)F)cc1CN1C[C@@H](c2cccc(C(F)(F)F)c2)N(C[C@@H](O)C(F)(F)F)c2ccccc21 [Example 43, (2R)-1,1,1-trifluoro-3-(4-(2-methyl-5-(trifluoromethyl)benzyl)-2-(3-(trifluoromethyl)phenyl)-3,4-dihydroquinoxalin-1(2H)-yl)propan-2-ol] | 270
15 | Cc1cccc(CN2C[C@@H](c3cccc(C(F)(F)F)c3)N(C[C@@H](O)C(F)(F)F)c3ccccc32)n1 [Example 44] | 460
16 | O[C@H](CN1c2ccccc2N(Cc2cccc(OC(F)(F)F)c2)C[C@H]1c1ccc(Cl)cc1)C(F)(F)F [Example 49] | 20
17 | COc1cc2ccc([C@@H]3CN(Cc4cccc(OC(F)(F)F)c4)c4ccccc4N3C[C@@H](O)C(F)(F)F)cc2cc1OC [Example 50] | 193
18 | O[C@H](CN1c2ccccc2N(Cc2cccc(OC(F)(F)F)c2)C[C@H]1c1ccc2c(c1)OCCO2)C(F)(F)F [Example 51] | 209
19 | O[C@H](CN1c2ccccc2N(Cc2cccc(OC(F)(F)F)c2)C[C@H]1c1ccc(F)cc1)C(F)(F)F [Example 52] | 682
20 | Cc1ccc([C@@H]2CN(Cc3cccc(OC(F)(F)F)c3)c3ccccc3N2C[C@@H](O)C(F)(F)F)cc1 [Example 53] | 56
21 | COc1ccc([C@@H]2CN(Cc3cccc(OC(F)(F)F)c3)c3ccccc3N2C[C@@H](O)C(F)(F)F)cc1 [Example 54] | 69
22 | O[C@H](CN1c2ccccc2N(C2C=Cc3ccccc32)CC1c1cccc(OC(F)(F)C(F)F)c1)C(F)(F)F (stereo partly drawn) [Example 56, (2R)-3(4-(1H-inden-1-yl))-2-(3-(1,1,2,2,- tetrafluoroethoxy)phenyl)-3,4-dihydroquinoxalin-1(2H)-yl-1,1,1-trifluoropropan-2-ol] | 11

Same assay, conditions: read-out: SPA IC50

Row | Structure (SMILES) | IC50 [nM]
23 | O[C@H](CN1c2ccccc2N(Cc2cccc(OC(F)(F)F)c2)C[C@H]1c1cccc(C(F)(F)F)c1)C(F)(F)F [Example 10] | 9
24 | O[C@H](CN1c2ccccc2N(Cc2cccc(OC(F)(F)F)c2)C[C@H]1c1ccc(C(F)(F)F)cc1)C(F)(F)F [Example 11] | 4
25 | C[C@@H](c1cccc(C(F)(F)F)c1)N1C[C@@H](c2cccc(C(F)(F)F)c2)N(C[C@@H](O)C(F)(F)F)c2ccccc21 [Example 12] | 28
26 | C[C@H](c1cccc(C(F)(F)F)c1)N1C[C@@H](c2cccc(C(F)(F)F)c2)N(C[C@@H](O)C(F)(F)F)c2ccccc21 [Example 13, (R)-1,1,1-trifluoro-3-((R)-2-(3-(trifluoromethyl)phenyl-4-((R)-1-(3-trifluoromethyl)phenyl)ethyl)-3,4-dihydroquinoxalin-1(2H)-yl)propan-2-ol] | 10
27 | C[C@@H](c1ccccc1)N1C[C@@H](c2cccc(C(F)(F)F)c2)N(C[C@@H](O)C(F)(F)F)c2ccccc21 [Example 14] | 1460
28 | C[C@H](c1ccccc1)N1C[C@@H](c2cccc(C(F)(F)F)c2)N(C[C@@H](O)C(F)(F)F)c2ccccc21 [Example 15] | 14
29 | COC(=O)c1cccc([C@@H]2CN(Cc3cccc(OC(F)(F)F)c3)c3ccccc3N2C[C@@H](O)C(F)(F)F)c1 [Example 16] | 27
30 | O[C@H](CN1c2ccccc2N(Cc2cccc(OC(F)(F)F)c2)C[C@H]1c1cccc(OC(F)(F)C(F)F)c1)C(F)(F)F [Example 18] | 15
31 | CNC(=O)c1cccc(C2CN(Cc3cccc(OC(F)(F)F)c3)c3ccccc3N2C[C@@H](O)C(F)(F)F)c1 (stereo partly drawn) [Example 19, N-methyl-3-{1-[(R)-3,3,3-trifluoro-2-hydroxypropyl]-4-[3-(trifluoro-methoxy)benzyl]-1,2,3,4-tetrahydroquinoxalin-2-yl}benzamide] | 90
32 | COc1cccc([C@@H]2CN(Cc3cccc(OC(F)(F)F)c3)c3ccccc3N2C[C@@H](O)C(F)(F)F)c1 [Example 20] | 78
33 | O[C@H](CN1c2ccccc2N(Cc2cccc(OC(F)(F)F)c2)C[C@H]1c1cccc(OC(F)(F)F)c1)C(F)(F)F [Example 21] | 19
34 | O[C@H](CN1c2ccccc2N(Cc2cccc(OC(F)(F)F)c2)C[C@H]1c1cccnc1)C(F)(F)F [Example 22] | 258
35 | CS(=O)(=O)c1ccc([C@@H]2CN(Cc3cccc(OC(F)(F)F)c3)c3ccccc3N2C[C@@H](O)C(F)(F)F)cc1 [Example 23] | 96
36 | N#Cc1cccc([C@@H]2CN(Cc3cccc(OC(F)(F)F)c3)c3ccccc3N2C[C@@H](O)C(F)(F)F)c1 [Example 24] | 98
37 | O[C@H](CN1c2ccccc2N(Cc2cccc(OC(F)(F)F)c2)C[C@H]1c1cc(C(F)(F)F)cc(C(F)(F)F)c1)C(F)(F)F [Example 25] | 770
38 | O[C@H](CN1c2ccccc2N(Cc2cccc(OC(F)(F)F)c2)C[C@H]1c1ccc(C(F)(F)F)nc1)C(F)(F)F [Example 26] | 24
39 | CN(C)c1ncc([C@@H]2CN(Cc3cccc(OC(F)(F)F)c3)c3ccccc3N2C[C@@H](O)C(F)(F)F)cn1 [Example 27] | 30
40 | Cc1cc([C@@H]2CN(Cc3cccc(OC(F)(F)F)c3)c3ccccc3N2C[C@@H](O)C(F)(F)F)n(C)n1 [Example 28] | 390
